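96-well plates; 48 h exposure; 5 concentrations. Endpoints by linear interpolation between flanking doses. Not reached: highest tested concentration assigned. GI50: concentration for 50% inhibition of growth.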 Calls of active or inactive are those of the source. Cut-off read from the data, not from the text of the source: active = GI50 up to about 1.1 µM and inactive = higher.
Experiments:
Assay in all cases: NCI-60 cell line screen, 48 h
[1] = test system: SNB-19
[2] = test system: TK-10
[3] = test system: SN12C
[4] = test system: MDA-MB-435
[5] = test system: KM12
[6] = test system: OVCAR-5
[7] = test system: PC-3
[8] = test system: Malme-3M
[9] = test system: MDA-MB-231
[10] = test system: HCT-15
[11] = test system: A549
[12] = test system: UACC-257
[13] = test system: SK-MEL-2
[14] = test system: SF-268
[15] = test system: OVCAR-3
[16] = test system: T47D
[17] = test system: M14
[18] = test system: SR
[19] = test system: HCT-116
[20] = test system: U-251

Nc1ccn(CC(O)c2cc3ccccc3[nH]2)c(=O)n1 (stereo not given)
GI50 [1]: > 100 µM (inactive) | GI50 [2]: > 100 µM (inactive) | GI50 [3]: > 100 µM (inactive) | GI50 [4]: > 100 µM (inactive) | GI50 [5]: > 100 µM (inactive) | GI50 [6]: > 100 µM (inactive) | GI50 [7]: > 100 µM (inactive) | GI50 [8]: > 100 µM (inactive) | GI50 [9]: > 100 µM (inactive) | GI50 [10]: > 100 µM | GI50 [11]: > 100 µM (inactive) | GI50 [12]: > 100 µM (inactive) | GI50 [13]: > 100 µM (inactive) | GI50 [14]: > 100 µM (inactive) | GI50 [15]: > 100 µM (inactive) | GI50 [16]: > 100 µM (inactive) | GI50 [17]: > 100 µM (inactive) | GI50 [18]: > 100 µM (inactive) | GI50 [19]: > 100 µM (inactive) | GI50 [20]: > 100 µM (inactive)

CS[C@]12C(=O)C[C@@]3(C)[C@@H](CC[C@]3(O)C(=O)CO)[C@@H]1CCC1=CC(=O)CC[C@@]12C
GI50 [1]: > 100 µM (inactive) | GI50 [2]: > 100 µM (inactive) | GI50 [3]: > 100 µM (inactive) | GI50 [4]: 30.1 µM (inactive) | GI50 [5]: > 100 µM (inactive) | GI50 [6]: > 100 µM (inactive) | GI50 [7]: 55 µM (inactive) | GI50 [8]: > 100 µM (inactive) | GI50 [9]: > 100 µM (inactive) | GI50 [10]: 60.7 µM | GI50 [11]: > 100 µM (inactive) | GI50 [12]: > 100 µM (inactive) | GI50 [13]: > 100 µM (inactive) | GI50 [14]: > 100 µM (inactive) | GI50 [15]: > 100 µM (inactive) | GI50 [16]: > 100 µM (inactive) | GI50 [17]: 46 µM (inactive) | GI50 [18]: 35 µM (inactive) | GI50 [19]: > 100 µM (inactive) | GI50 [20]: > 100 µM (inactive)

CN(NC(=O)/C(=C/C=C/c1ccccc1)NC(=O)c1ccccc1)C1=C(Cl)C(=O)[N+](c2ccccc2)=CC1
GI50 [1]: 25.4 µM (inactive) | GI50 [2]: 55.2 µM (inactive) | GI50 [3]: 24.8 µM (inactive) | GI50 [4]: 17 µM (inactive) | GI50 [5]: 16.7 µM (inactive) | GI50 [6]: > 100 µM (inactive) | GI50 [7]: 35.7 µM (inactive) | GI50 [8]: 37.9 µM (inactive) | GI50 [9]: 18.4 µM (inactive) | GI50 [10]: 24.2 µM | GI50 [11]: 26.3 µM (inactive) | GI50 [12]: 41.2 µM (inactive) | GI50 [13]: 26.2 µM (inactive) | GI50 [14]: 29.6 µM (inactive) | GI50 [15]: 20.8 µM (inactive) | GI50 [16]: 15.7 µM (inactive) | GI50 [17]: 18.1 µM (inactive) | GI50 [18]: 21.4 µM (inactive) | GI50 [19]: 20.1 µM (inactive) | GI50 [20]: 19.8 µM (inactive)

CCCC1NC(C#N)(C#N)C(CCC)NC1(C#N)C#N (stereo not given)
GI50 [1]: 40.9 µM (inactive) | GI50 [2]: 1.01 µM (active) | GI50 [3]: 1.11 µM (active) | GI50 [4]: 0.106 µM (active) | GI50 [5]: 9.25 µM (inactive) | GI50 [6]: 24.7 µM (inactive) | GI50 [7]: 0.318 µM (active) | GI50 [8]: 0.0297 µM (active) | GI50 [9]: 27.8 µM (inactive) | GI50 [10]: 0.105 µM | GI50 [11]: 14.3 µM (inactive) | GI50 [12]: > 100 µM (inactive) | GI50 [13]: 52.1 µM (inactive) | GI50 [14]: 1.31 µM (inactive) | GI50 [15]: 0.076 µM (active) | GI50 [16]: 0.946 µM (active) | GI50 [17]: 0.126 µM (active) | GI50 [18]: < 0.0173 µM (active) | GI50 [19]: < 0.0158 µM (active) | GI50 [20]: 6.46 µM (inactive)

COc1ccc(-c2cc(-c3ccccc3)nc(N)c2-c2ccc3ccccc3c2)cc1
GI50 [1]: 1.18 µM (inactive) | GI50 [2]: 3.15 µM (inactive) | GI50 [3]: 1.86 µM (inactive) | GI50 [4]: 2.11 µM (inactive) | GI50 [5]: 1.73 µM (inactive) | GI50 [6]: 1.77 µM (inactive) | GI50 [7]: 2.22 µM (inactive) | GI50 [8]: 1.25 µM (inactive) | GI50 [9]: 1.6 µM (inactive) | GI50 [10]: 1.54 µM | GI50 [11]: 2.21 µM (inactive) | GI50 [12]: 1.86 µM (inactive) | GI50 [13]: 1.82 µM (inactive) | GI50 [14]: 3.3 µM (inactive) | GI50 [15]: 2.47 µM (inactive) | GI50 [16]: 1.69 µM (inactive) | GI50 [17]: 2.53 µM (inactive) | GI50 [18]: 2.15 µM (inactive) | GI50 [19]: 1.24 µM (inactive) | GI50 [20]: 1.95 µM (inactive)
